We go through two molecules from US11685741B2, “Fluorescent probes” (University of Massachusetts, priority 2017, dated 2023).

Experiment [1] relates to primary human fibroblast cells (ws1). The experiment is described as follows: Confocal imaging of Fe2+ with Rh6GD in ws1 cells. The class given is cell-based. The procedure: Human primary fibroblast ws1 cells were grown at 37° C. in a humid atmosphere of 5% CO2 atmosphere in eagle's minimum essential medium (EMEM, ATCC) supplemented with 10% fetal bovine serum (FBS, ATCC). Cultures were divided into 1:2 every 48 h to an approximate cell density of 1.21 million cells/ml and used for experiments after 24 h.
A Zeiss LSM 710 laser-scanning confocal microscope system was used for cell imaging experiments. 40× oil-immersion objective lens were used to perform all the experiments. For imaging with the Rh6GD sensor, excitation wavelength of the laser was 543 nm and emissions were collected over the range 545-625 nm. For images with MitoTracker Green FM, LysoTracker Deep Red, excitation wavelengths recommended by the manufacturer were 488 nm for MitoTracker, 633 nm for LysoTracker. Emissions were integrated at 492-535 nm (MitoTracker), 650-800 nm (LysoTracker), respectively.
Ws1 cells, at an approximately density of 1.2 million/ml in complete EMEM medium, were incubated with 100 μM ferrous ammonium sulfate (FAS, Fe (NH4)2(SO4)2 from a 10 mM stock solution) for overnight at 37° C. in a humid atmosphere of 5% CO2 and then the cells were washed with fresh EMEM medium to remove excess Fe^2+. Then cells were incubated with Rh6GD (10 μM, from 500 μM stock solution in DMF) at 37° C. for 30 min and then cells were washed with EMEM media and then imaged. In addition, some cells were treated firstly with 100 μM Fe^2+ overnight and then the cells were washed with fresh EMEM medium. For chelation experiments, Fe^2+-loaded cells or untreated cells were incubated with 1 mM 2,2′-bipyridyl (Bpy) at 37° C. for 30 min, then sensor was added followed by washing with the media, and then imaging was done. Controls were imaged without incubation with Fe^2+ or 2,2′-bipyridyl.
The ability of Rh6GD to detect Fe^2+ in primary human fibroblast cells (ws1) was investigated by using confocal microscopy. […] For Fe^2+ repleting conditions, live ws1 cells were incubated with 100 μM of ferrous ammonium sulfate (Fe (NH4)2(SO4)2) at 37° C. for overnight followed by washing with EMEM medium to remove excess Fe^2+ and then 10 μM of Rh6GD was added to the culture media and was incubated at 37° C. for 30 min. […] This fluorescent intensity is almost the same as that of cells without Fe^2+ or Bpy treatment (FIG. 34B).
To explore this, the distribution of exchangeable Fe^2+ pools in live ws1 cells were further investigated using Rh6GD, together with colocalization experiments using other dyes such as MitoTracker Green FM (a green fluorescent dye which localizes to mitochondria in live cells regardless of mitochondrial membrane potential) and LysoTracker Deep Red (a fluorescent dye that stains acidic compartments such as endosomes and lysosomes in live cells). […]

Experiment [2] in a line: Binding studies of sensor with Fe3+ (Job's plot, titration, EDTA reversibility). Here is the method: Job's method and UV-vis spectra were applied to study the binding stoichiometry between Rh-PK and Fe^3+ and monitored by the absorbance at 555 nm. […] The binding constant of this complex was calculated following a method reported previously (G. E. Tumambac, et al., Tetrahedron 2004, 60, 11293-11297), using absorption values at […] by the equations described below, and was determined to be 1.54×10^7 […].
The equations below was used to calculate the binding constants with stoichiometry of 1:1. L+S↔LS where L=sensor, S=Fe3+ and LS=sensor-Fe^3+ complex. The apparent binding constant is given by
[formula] Fe is the fraction of L that formed a complex, [LS]e is concentration at equilibrium, [L]0 is the initial concentration. Au, Am, and Ac are the absorbances of solutions of L (before any Fe^3+ was added), during the titration and at saturation, respectively. The concentration of free Fe^3+ at equilibrium, [S]e, is found with the following identity. [S]e=[S]o−[LS]e=[S]o−Fc[L]o The apparent binding constant K can then be calculated from
Reversibility experiments were carried out by adding EDTA to the complex in ACN/Tris-HCl buffer (10 mM, pH 7.3, v/v 3:1). […]
The stoichiometry of RhHPA-Fe^3+ was measured using Job's plot and mole ratio plots methods. B. Valeur, Molecular Fluorescence: Principles and Applications, Wiley-VCH. […] To determine the binding constant of chemosensor, a fluorescence titration of different amounts of Fe^3+ into the acetonitrile solution of sensor was carried out. […] The determination of the binding constant of RhHPA was calculated using the following equation: F−Fmin=[…](Fmax−Fmin)/Kd where F is the observed fluorescence, Fmax is the maximum fluorescence for the RhHPA-Fe^3+ complex at concentration of the equal reacted between sensor and metal cation, Fmin is the fluorescence intensity for occurring RhHPA-Fe^3+.
Absorption enhancement observation at 558 nm was plotted against the molar value of the [Fe^3+]/[Fe^3+]+RhHPA and [Fe^3+]/RhHPA. […] Binding constant of fluorescent sensor “RhHPA” was calculated and it was found as K=1.27×10^7 M^−1. […]

Take `CCNc1cc2c(cc1C)C1(c3cc(C)c(NCC)cc3O2)c2ccccc2C(=O)N1/N=C/C=C/c1ccc(N(C)C)cc1` [Rh6GD, 2-(((1E,2E)-3-(4-(dimethylamino)phenyl)allylidene)amino)-3′,6′-bis(ethylamino)-2′,7′-dimethylspiro[isoindoline-1,9′-xanthen]-3-one]: the “fluorescence of cells with sensor only” value in experiment [1] (10 μM Rh6GD) is on record as “weak fluorescence”. Further, in experiment [1] (100 μM Fe^2+ overnight, Bpy, 10 μM Rh6GD, versus Fe^2+ supplement), the “fluorescence of cells treated with Fe^2+ then Bpy” value is “marked decrease in fluorescent intensity”. Besides, the “fluorescence of Fe^2+-treated cells versus unsupplemented” value in experiment [1] (100 μM ferrous ammonium sulfate overnight, then 10 μM Rh6GD 30 min) is reported as “significant increase in fluorescent signals”. In addition, in experiment [1] (Bpy, then 10 μM Rh6GD, versus sensor only), the “fluorescence of Bpy-treated cells” value is reported as “significantly decrease in fluorescence signal”.

`CCN(CC)c1ccc2c(c1)Oc1cc(N(CC)CC)ccc1C21c2ccccc2C(=O)N1CC/N=C(\C)c1cccc(C(C)=O)n1` [Rh-PK, (E)-2-(2-((1-(6-acetylpyridin-2-yl)ethylidene)amino)ethyl)-3′,6′-bis(diethylamino)spiro[isoindoline-1,9′-xanthen]-3-one] came in with a binding constant in experiment [2] (1:1 Fe^3+-Rh-PK complex, from absorption titration) of 1.54e+07 M⁻¹. The apparent binding constant in experiment [2] (1:1 sensor-Fe^3+ complex, ACN/Tris-HCl buffer pH 7.3) turned out to be 1.54e+07 M⁻¹.
